{"source": "patent US6114310A", "about": "“Efflux pump inhibitors” (priority 1998, dated 2000)", "system": "Pseudomonas aeruginosa PAM1001", "assay": "microbe, parasite or virus in culture", "type": "cell-based", "experimental": "The activity of efflux pump inhibitors (EPI) in combination with fluoroquinolones, such as levofloxacin, is assessed by the checkerboard assay (Antimicrobial Combinations. In Antibiotics in Laboratory Medicine, Ed. Victor Lorian, M. D., Fourth edition, 1996, pp 333-338) using broth microdilution method performed as recommended by the NCCLS (National Committee for Clinical Laboratory Standards (NCCLS). 1997. Methods for Dilution of Antimicrobial Susceptibility Tests for Bacteria That Grow Aerobically--Fourth Edition; Approved Standard. NCCLS Document M7-A4, Vol 17 No.2). The test organism used is Pseudomonas aeruginosa PAM1001.\nIn this assay, multiple dilutions of two drugs, namely the EPI and levofloxacin, are being tested, alone and in combination, at concentrations equal to, above and below their respective minimal inhibitory concentrations (MICs).\nStock solutions are further diluted, according to the needs of a particular assay, in Mueller Hinton Broth (MHB). Stock solution can be stored at -80° C. Quinolones are solubilized according to the instructions of the manufacturers, at a concentration of 1 mg/ml. They are then further diluted in MHB. Stock solution can be stored at -80° C.\nThe checkerboard assay is performed in microtiter plates. Levofloxacin is diluted in the x axis, each column containing a single concentration of levofloxacin. The EPI is diluted in the y axis, each row containing an equal concentration of EPI. The result of these manipulations is that each well of the microtiter plate contains a unique combination of concentrations of the two agents. Each EPI are tested independently.\nThe assay is performed in MHB with a final bacterial inoculum of 5×10^5 CFU/ml (from an early-log phase culture). Microtiter plates are incubated during 20 h at 35° C. and are read using a microtiterplate reader (Molecular Devices) at 650 nm as well as visual observation using a microtiterplate reading mirror."}
{"substance": "D-Lysyl-β-N-(Cyclohexylmethyl)alanine Quinoline-3-amide Trifluoroacetate [Example 18]", "values": [{"measurement": "Levofloxacin MIC Against P. aeruginosa PAM1001 in Presence of Efflux Pump Inhibitor (EPI), Minimum Inhibitory Concentration", "setting": "Table 1, EPI Conc. 0 μg/ml", "result": 4, "unit": "µg/mL"}, {"measurement": "Levofloxacin MIC Against P. aeruginosa PAM1001 in Presence of Efflux Pump Inhibitor (EPI), Minimum Inhibitory Concentration", "setting": "Table 1, EPI Conc. 0.625 μg/ml", "result": 4, "unit": "µg/mL"}, {"measurement": "Levofloxacin MIC Against P. aeruginosa PAM1001 in Presence of Efflux Pump Inhibitor (EPI), Minimum Inhibitory Concentration", "setting": "Table 1, EPI Conc. 5 μg/ml", "result": 4, "unit": "µg/mL"}, {"measurement": "Levofloxacin MIC Against P. aeruginosa PAM1001 in Presence of Efflux Pump Inhibitor (EPI), Minimum Inhibitory Concentration", "setting": "Table 1, EPI Conc. 10 μg/ml", "result": 2, "unit": "µg/mL"}, {"measurement": "Levofloxacin MIC Against P. aeruginosa PAM1001 in Presence of Efflux Pump Inhibitor (EPI), Minimum Inhibitory Concentration", "setting": "Table 1, EPI Conc. 40 μg/ml", "result": 0.25, "unit": "µg/mL"}, {"measurement": "Levofloxacin MIC Against P. aeruginosa PAM1001 in Presence of Efflux Pump Inhibitor (EPI), Minimum Inhibitory Concentration", "setting": "Table 1, EPI Conc. […]", "result": 4, "unit": "µg/mL"}, {"measurement": "Levofloxacin MIC Against P. aeruginosa PAM1001 in Presence of Efflux Pump Inhibitor (EPI), Minimum Inhibitory Concentration", "setting": "Table 1, EPI Conc. μg/ml (number not given; column between 10 and 40 μg/ml)", "result": 0.50, "unit": "µg/mL"}, {"measurement": "Levofloxacin MIC Against P. aeruginosa PAM1001 in Presence of Efflux Pump Inhibitor (EPI), Minimum Inhibitory Concentration", "setting": "Table 2, EPI Conc. 0 μg/ml", "result": 4, "unit": "µg/mL"}, {"measurement": "Levofloxacin MIC Against P. aeruginosa PAM1001 in Presence of Efflux Pump Inhibitor (EPI), Minimum Inhibitory Concentration", "setting": "Table 2, EPI Conc. 0.625 μg/ml", "result": 4, "unit": "µg/mL"}, {"measurement": "Levofloxacin MIC Against P. aeruginosa PAM1001 in Presence of Efflux Pump Inhibitor (EPI), Minimum Inhibitory Concentration", "setting": "Table 2, EPI Conc. 5 μg/ml", "result": 4, "unit": "µg/mL"}, {"measurement": "Levofloxacin MIC Against P. aeruginosa PAM1001 in Presence of Efflux Pump Inhibitor (EPI), Minimum Inhibitory Concentration", "setting": "Table 2, EPI Conc. 10 μg/ml", "result": 2, "unit": "µg/mL"}, {"measurement": "Levofloxacin MIC Against P. aeruginosa PAM1001 in Presence of Efflux Pump Inhibitor (EPI), Minimum Inhibitory Concentration", "setting": "Table 2, EPI Conc. 40 μg/ml", "result": 0.125, "unit": "µg/mL"}, {"measurement": "Levofloxacin MIC Against P. aeruginosa PAM1001 in Presence of Efflux Pump Inhibitor (EPI), Minimum Inhibitory Concentration", "setting": "Table 2, EPI Conc. […]", "result": 4, "unit": "µg/mL"}, {"measurement": "Levofloxacin MIC Against P. aeruginosa PAM1001 in Presence of Efflux Pump Inhibitor (EPI), Minimum Inhibitory Concentration", "setting": "Table 2, EPI Conc. μg/ml (number not given; column between 10 and 40 μg/ml)", "result": 0.125, "unit": "µg/mL"}, {"measurement": "Levofloxacin MIC Against P. aeruginosa PAM1001 in Presence of Efflux Pump Inhibitor (EPI), Minimum Inhibitory Concentration", "setting": "Table 3, EPI Conc. 0 μg/ml", "result": 4, "unit": "µg/mL"}, {"measurement": "Levofloxacin MIC Against P. aeruginosa PAM1001 in Presence of Efflux Pump Inhibitor (EPI), Minimum Inhibitory Concentration", "setting": "Table 3, EPI Conc. 0.625 μg/ml", "result": 4, "unit": "µg/mL"}, {"measurement": "Levofloxacin MIC Against P. aeruginosa PAM1001 in Presence of Efflux Pump Inhibitor (EPI), Minimum Inhibitory Concentration", "setting": "Table 3, EPI Conc. 5 μg/ml", "result": 1, "unit": "µg/mL"}, {"measurement": "Levofloxacin MIC Against P. aeruginosa PAM1001 in Presence of Efflux Pump Inhibitor (EPI), Minimum Inhibitory Concentration", "setting": "Table 3, EPI Conc. 10 μg/ml", "result": 0.50, "unit": "µg/mL"}, {"measurement": "Levofloxacin MIC Against P. aeruginosa PAM1001 in Presence of Efflux Pump Inhibitor (EPI), Minimum Inhibitory Concentration", "setting": "Table 3, EPI Conc. 40 μg/ml", "result": 0.03, "unit": "µg/mL"}, {"measurement": "Levofloxacin MIC Against P. aeruginosa PAM1001 in Presence of Efflux Pump Inhibitor (EPI), Minimum Inhibitory Concentration", "setting": "Table 3, EPI Conc. μg/ml (number not given; column between 10 and 40 μg/ml)", "result": 0.03, "unit": "µg/mL"}, {"measurement": "Levofloxacin MIC Against P. aeruginosa PAM1001 in Presence of Efflux Pump Inhibitor (EPI), Minimum Inhibitory Concentration", "setting": "Table 4, EPI Conc. 0 μg/ml", "result": 4, "unit": "µg/mL"}, {"measurement": "Levofloxacin MIC Against P. aeruginosa PAM1001 in Presence of Efflux Pump Inhibitor (EPI), Minimum Inhibitory Concentration", "setting": "Table 4, EPI Conc. 0.625 μg/ml", "result": 4, "unit": "µg/mL"}, {"measurement": "Levofloxacin MIC Against P. aeruginosa PAM1001 in Presence of Efflux Pump Inhibitor (EPI), Minimum Inhibitory Concentration", "setting": "Table 4, EPI Conc. 5 μg/ml", "result": 2, "unit": "µg/mL"}, {"measurement": "Levofloxacin MIC Against P. aeruginosa PAM1001 in Presence of Efflux Pump Inhibitor (EPI), Minimum Inhibitory Concentration", "setting": "Table 4, EPI Conc. 10 μg/ml", "result": 0.50, "unit": "µg/mL"}, {"measurement": "Levofloxacin MIC Against P. aeruginosa PAM1001 in Presence of Efflux Pump Inhibitor (EPI), Minimum Inhibitory Concentration", "setting": "Table 4, EPI Conc. 40 μg/ml", "result": 0.25, "unit": "µg/mL"}, {"measurement": "Levofloxacin MIC Against P. aeruginosa PAM1001 in Presence of Efflux Pump Inhibitor (EPI), Minimum Inhibitory Concentration", "setting": "Table 4, EPI Conc. […]", "result": 4, "unit": "µg/mL"}, {"measurement": "Levofloxacin MIC Against P. aeruginosa PAM1001 in Presence of Efflux Pump Inhibitor (EPI), Minimum Inhibitory Concentration", "setting": "Table 4, EPI Conc. μg/ml (number not given; column between 10 and 40 μg/ml)", "result": 0.125, "unit": "µg/mL"}]}
